Molecular target: T1, human TRPV4 (Homo sapiens, UniProt Q9HBA0)
T1 construct: host or cells: tetracycline-inducible Flp-In T-REx 293 cells
Test: Hypotonicity-induced Ca2+ influx (Fluo-4, FDSS)
Format: cell-based
Procedure, shortened: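 Flp-In T-REx 293 cells with tetracycline-induced human TRPV4, loaded with Fluo-4 for 60 min at 25 °C. Compound added 5 min before hypotonic mannitol/CaCl2 solution. Ca2+ signal recorded for 4.5 min on FDSS.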

[1] = Flp-In T-REx 293 cells expressing human TRPV4, examples listed under heading 'Human IC50<50 nM'
[2] = Flp-In T-REx 293 cells stably expressing human TRPV4, compounds listed by potency bin (<10 nM Tables 96-1/96-2, <3 nM Table 97)

T1 sequence (Q9HBA0 whole entry): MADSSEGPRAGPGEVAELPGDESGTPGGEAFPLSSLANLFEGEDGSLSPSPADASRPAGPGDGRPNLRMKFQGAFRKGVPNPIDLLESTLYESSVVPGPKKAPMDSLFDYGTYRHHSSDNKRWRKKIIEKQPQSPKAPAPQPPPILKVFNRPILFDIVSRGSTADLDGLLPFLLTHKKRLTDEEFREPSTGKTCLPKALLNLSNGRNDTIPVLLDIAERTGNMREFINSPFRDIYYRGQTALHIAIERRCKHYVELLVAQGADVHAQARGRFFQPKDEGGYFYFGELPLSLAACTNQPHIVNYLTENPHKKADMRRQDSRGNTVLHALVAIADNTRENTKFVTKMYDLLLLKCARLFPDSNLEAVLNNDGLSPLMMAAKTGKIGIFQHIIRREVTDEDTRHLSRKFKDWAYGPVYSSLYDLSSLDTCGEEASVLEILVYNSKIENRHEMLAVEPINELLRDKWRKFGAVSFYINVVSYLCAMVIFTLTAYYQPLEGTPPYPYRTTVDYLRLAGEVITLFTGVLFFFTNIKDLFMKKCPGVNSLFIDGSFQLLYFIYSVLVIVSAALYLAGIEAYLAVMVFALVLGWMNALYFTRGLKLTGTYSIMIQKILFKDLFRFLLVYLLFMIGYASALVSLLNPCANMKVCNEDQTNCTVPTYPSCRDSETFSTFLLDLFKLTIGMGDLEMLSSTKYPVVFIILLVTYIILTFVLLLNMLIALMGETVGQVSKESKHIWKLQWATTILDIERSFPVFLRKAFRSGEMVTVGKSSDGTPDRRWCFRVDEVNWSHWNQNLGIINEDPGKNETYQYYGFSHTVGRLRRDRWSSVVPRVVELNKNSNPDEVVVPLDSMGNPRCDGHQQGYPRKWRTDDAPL

SMILES | IC50 [1] [nM] | IC50 [2] [nM]
O=C(C(O)c1cccc(-c2cccc(Cl)c2)c1)N1CCc2nc(C3(c4ccccc4)CC3)[nH]c(=O)c2C1 (stereo not shown) [44-21] | < 50 | –
O=C([C@H](O)c1cccc(-c2cccc(OCc3ccccc3)c2)c1)N1CCc2nc(C3(c4ccccc4)CC3)[nH]c(=O)c2C1 [44-93] | < 50 | < 10
CC(C)(C)c1cccc(C(O)C(=O)N2CCc3nc(C4(c5ccccc5)CC4)[nH]c(=O)c3C2)c1 (stereo not shown) [14-30] | < 50 | –
O=C([C@H](O)c1cccc(-c2cnc3ccccc3c2)c1)N1CCc2nc(C3(c4ccccc4)CC3)[nH]c(=O)c2C1 [44-81] | < 50 | < 3
O=C([C@H](O)c1cccc(-c2cccc(OC(F)(F)F)c2)c1)N1CCCc2nc(C3(c4cccc(C5CCCCC5)c4)CC3)[nH]c(=O)c2C1 [52-4] | < 50 | < 10
O=C(C(O)c1cccc(-c2cccc(C(F)(F)F)c2)c1)N1CCCc2nc(C3(c4ccccc4)CC3)[nH]c(=O)c2C1 (stereo not shown) [49-8] | < 50 | < 10
O=C([C@H](O)c1cccc(C(F)(F)F)c1)N1CCc2nc(C3(c4cc(-c5cccnc5)cs4)CC3)[nH]c(=O)c2C1 [36-2] | < 50 | –
O=C(N1CCCc2nc(C3(c4cccc(-c5csc6ccccc56)c4)CC3)[nH]c(=O)c2C1)C(F)(F)c1cccc(C(F)(F)F)c1 [20-15] | < 50 | < 10
O=C(Cc1cccc(-c2cccc(C(F)(F)F)c2)c1)N1CCCc2nc(C3(c4cccc(C5CCCCC5)c4)CC3)[nH]c(=O)c2C1 [31-14] | < 50 | < 10
CC(C)c1cncc(C2(c3nc4c(c(=O)[nH]3)CN(C(=O)[C@H](O)c3cccc(-c5ccc(F)cc5)c3)CC4)CC2)c1 [47-3] | < 50 | < 10
O=C(Cc1cccc(-c2coc3ccccc23)c1)N1CCCc2nc(C3(c4cccc(Cl)c4)CC3)[nH]c(=O)c2C1 [17-118] | < 50 | < 10
CC(C(=O)N1CCCc2nc(C3(c4cccc(F)c4)CC3)[nH]c(=O)c2C1)c1cccc(C(F)(F)F)c1 (stereo not shown) [17-89] | < 50 | < 10
CC(C)c1cncc(C2(c3nc4c(c(=O)[nH]3)CN(C(=O)C(F)(F)c3cccc(C(F)(F)F)c3)CCC4)CC2)c1 [22-1] | < 50 | < 3
O=C([C@H](O)c1cccc(-c2ccc3c(c2)OCCCO3)c1)N1CCc2nc(C3(c4ccccc4)CC3)[nH]c(=O)c2C1 [44-106] | < 50 | –
CN(Cc1cccc2ccccc12)C(=O)c1csc(C2(c3nc4c(c(=O)[nH]3)CN(C(=O)[C@H](O)c3cccc(C(F)(F)F)c3)CCC4)CC2)c1 [59-10] | < 50 | < 10
Cc1ccc(-c2cccc([C@@H](O)C(=O)N3CCc4nc(C5(c6ccccc6)CC5)[nH]c(=O)c4C3)c2)cc1C [44-114] | < 50 | –
O=C([C@H](O)c1cccc(Cl)c1)N1CCc2nc(C3(c4cccc(C5CCCCC5)c4)CC3)[nH]c(=O)c2C1 [14-1] | < 50 | < 3
O=C([C@H](O)c1cccc(C(F)(F)F)c1)N1CCCc2nc(C3(c4cnc(-c5ccccc5)o4)CC3)[nH]c(=O)c2C1 [18-31] | < 50 | –
O=C(C(O)c1cccc(-c2ccc(OC(F)(F)F)cc2)c1)N1CCCc2nc(C3(c4ccccc4)CC3)[nH]c(=O)c2C1 (stereo not shown) [49-11] | < 50 | < 10

SMILES | IC50 [1] [nM] | IC50 [2] [nM]
O=C(Cc1cccc(S(F)(F)(F)(F)F)c1)N1CCCc2nc(C3(c4cccc(Cl)c4)CC3)[nH]c(=O)c2C1 [17-114] | < 50 | < 10
O=C([C@H](O)c1cccc(-c2cc(Cl)ccc2Cl)c1)N1CCCc2nc(C3(c4ccccc4)CC3)[nH]c(=O)c2C1 [49-43] | < 50 | < 10
O=C([C@H](O)c1cccc(C(F)(F)F)c1)N1CCCc2nc(C3(c4cc(CCc5ccccc5)cs4)CC3)[nH]c(=O)c2C1 [30-9] | < 50 | < 10
CCOc1ccc(-c2cccc(C(O)C(=O)N3CCc4nc(C5(c6ccccc6)CC5)[nH]c(=O)c4C3)c2)cc1 (stereo not shown) [44-37] | < 50 | –
Cn1ccc(-c2cccc(C3(c4nc5c(c(=O)[nH]4)CN(C(=O)[C@H](O)c4cccc(C(F)(F)F)c4)CCC5)CC3)c2)n1 [42-34] | < 50 | –
CC(C)c1cccc(C2(c3nc4c(c(=O)[nH]3)CN(C(=O)C(F)(F)c3cccc(C(F)(F)F)c3)CCC4)CC2)c1 [20-6] | < 50 | < 10
O=C(C(O)c1cccc(-c2cccc(F)c2)c1)N1CCCc2nc(C3(c4cccc(Cl)c4)CC3)[nH]c(=O)c2C1 (stereo not shown) [17-5] | < 50 | < 3
O=C(Cc1cccc(-c2ccc(Cl)cc2)c1)N1CCc2nc(C3(c4cccc(Cl)c4)CC3)[nH]c(=O)c2C1 [14-119] | < 50 | –
O=C([C@H](O)c1cccc(-c2cc(F)cc(Cl)c2)c1)N1CCCc2nc(C3(c4cccc(-c5csc6ccccc56)c4)CC3)[nH]c(=O)c2C1 [52-14] | < 50 | < 10
O=C([C@H](O)c1cccc(-c2cc(Cl)ccc2Cl)c1)N1CCc2nc(C3(c4ccccc4)CC3)[nH]c(=O)c2C1 [44-108] | < 50 | < 10
CC(C)c1cccc(C2(c3nc4c(c(=O)[nH]3)CN(C(=O)[C@H](O)c3cccc(C(F)(F)F)c3)CC4)CC2)c1 [27-1] | < 50 | < 10
O=C(C(O)c1cccc(-c2cncc(C(F)(F)F)c2)c1)N1CCc2nc(C3(c4ccccc4)CC3)[nH]c(=O)c2C1 (stereo not shown) [44-19] | < 50 | –
O=C(C(O)c1cccc(SC(F)(F)F)c1)N1CCCc2nc(C3(c4cccc(F)c4)CC3)[nH]c(=O)c2C1 (stereo not shown) [17-30] | < 50 | < 10
O=C([C@H](O)c1cccc(C(F)(F)F)c1)N1CCc2nc(C3(c4cc(C5CCC(F)(F)CC5)cs4)CC3)[nH]c(=O)c2C1 [26-1] | < 50 | < 10
O=C([C@H](O)c1cccc(C(F)(F)F)c1)N1CCCc2nc(C3(c4cccc(-c5ccc(F)c(F)c5)c4)CC3)[nH]c(=O)c2C1 [42-62] | < 50 | < 10
COc1cc(-c2cccc(C3(c4nc5c(c(=O)[nH]4)CN(C(=O)[C@H](O)c4cccc(C(F)(F)F)c4)CCC5)CC3)c2)ccn1 [42-2] | < 50 | < 3
N#Cc1ccc(-c2cccc(C3(c4nc5c(c(=O)[nH]4)CN(C(=O)[C@H](O)c4cccc(C(F)(F)F)c4)CCC5)CC3)c2)cc1 [42-65] | < 50 | < 10
O=C([C@H](O)c1cccc(C(F)(F)F)c1)N1CCCc2nc(C3(c4cccc(C5=CCN(S(=O)(=O)C6CCCCC6)CC5)c4)CC3)[nH]c(=O)c2C1 [42-76] | < 50 | < 10
O=C([C@H](O)c1cccc(C(F)(F)F)c1)N1CCCc2nc(C3(c4cccc(-c5ccc(C6(O)CCOCC6)cc5)c4)CC3)[nH]c(=O)c2C1 [42-22] | < 50 | < 10

SMILES | IC50 [1] [nM] | IC50 [2] [nM]
CC(C)c1csc(C2(c3nc4c(c(=O)[nH]3)CN(C(=O)C(F)(F)c3cccc(Cl)c3)CC4)CC2)c1 [21-4] | < 50 | < 10
CC(C)c1csc(C2(c3nc4c(c(=O)[nH]3)CN(C(=O)C(O)c3cccc(C(F)(F)F)c3F)CC4)CC2)c1 (stereo not shown) [15-26] | < 50 | < 10
O=C(Cc1cccc(-c2cccc(Cl)c2)c1)N1CCCc2nc(C3(c4cccc(C5CCCCC5)c4)CC3)[nH]c(=O)c2C1 [31-16] | < 50 | < 10
O=C(C(O)c1cccc(-c2cccc(F)c2)c1)N1CCc2nc(C3(c4cccc(F)c4)CC3)[nH]c(=O)c2C1 (stereo not shown) [14-19] | < 50 | –
O=C([C@H](O)c1cccc(C(F)(F)F)c1)N1CCCc2nc(C3(c4cncc(C(F)(F)F)c4)CC3)[nH]c(=O)c2C1 [19-13] | < 50 | < 10
Cc1ccc(F)cc1-c1cccc(C(O)C(=O)N2CCc3nc(C4(c5ccccc5)CC4)[nH]c(=O)c3C2)c1 (stereo not shown) [44-39] | < 50 | –
O=C(N1CCCc2nc(C3(c4cccs4)CC3)[nH]c(=O)c2C1)C(F)(F)c1cccc(C(F)(F)F)c1 [21-1] | < 50 | < 3
O=C(C(O)c1cccc(-c2ccc(F)cc2)c1)N1CCc2nc(C3(c4ccccc4)CC3)[nH]c(=O)c2C1 (stereo not shown) [44-50] | < 50 | –
O=C(C(O)c1cccc(-c2cc(F)ccc2Cl)c1)N1CCc2nc(C3(c4ccccc4)CC3)[nH]c(=O)c2C1 (stereo not shown) [44-28] | < 50 | –
CC(C)c1csc(C2(c3nc4c(c(=O)[nH]3)CN(C(=O)[C@H](O)c3cccc(-c5cccc(C(F)(F)F)c5)c3)CCC4)CC2)c1 [54-4] | < 50 | < 10
O=C(Cc1cccc(-c2coc3ccccc23)c1)N1CCCc2nc(C3(c4ccccc4)CC3)[nH]c(=O)c2C1 [17-137] | < 50 | < 10
O=C([C@H](O)c1cccc(C(F)(F)F)c1)N1CCCc2nc(C3(c4cccc(-c5cnsc5)c4)CC3)[nH]c(=O)c2C1 [42-1] | < 50 | < 3
O=C([C@H](O)c1cccc(C(F)(F)F)c1)N1CCCc2nc(C3(c4cccc(-c5cnn(C6CCC6)c5)c4)CC3)[nH]c(=O)c2C1 [42-12] | < 50 | < 3
CC(C)c1cccc(C2(c3nc4c(c(=O)[nH]3)CN(C(=O)C(O)c3cccc(C(F)(F)F)c3F)CCC4)CC2)c1 (stereo not shown) [17-9] | < 50 | < 10
O=C([C@H](O)c1cccc(C(F)(F)F)c1F)N1CCCc2nc(C3(c4cncc(-c5ccccc5)c4)CC3)[nH]c(=O)c2C1 [19-3] | < 50 | < 10
O=C(C(O)c1cccc(-c2cc(F)ccc2F)c1)N1CCc2nc(C3(c4ccccc4)CC3)[nH]c(=O)c2C1 (stereo not shown) [44-48] | < 50 | –
O=C(/C=C/c1cccc(C(F)(F)F)c1)N1CCCc2nc(C3(c4cccc(Cl)c4)CC3)[nH]c(=O)c2C1 [17-117] | < 50 | < 10
O=C([C@H](O)c1cccc(Cl)c1)N1CCc2nc(C3(c4cc(-c5ccccc5)cs4)CC3)[nH]c(=O)c2C1 [6-21] | < 50 | –
O=C(c1csc(C2(c3nc4c(c(=O)[nH]3)CN(C(=O)[C@H](O)c3cccc(C(F)(F)F)c3)CCC4)CC2)c1)N1Cc2ccccc2C1 [59-4] | < 50 | –
